Test results reported in patent US11566007B2, “Ras inhibitors” (Revolution Medicines, Inc., priority 2019, dated 2023).
Read-outs that look alike come from different tables or passages of the source.

Columns and labels:
NRAS G12C = NRAS G12C (Homo sapiens (Human), UniProt P01111+P62937, G12C); test: Ras-Raf (BRAF RBD) disruption / FRET / MOA assay, NRAS G12C; assay type: biochemical; settings: read-out: IC50* NRAS G12C FRET data
Procedure, shortened: (§1)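 A 10-point, 3-fold dilution series topping at 30 μM final was incubated 3 h at 25° C with the Ras/cyclophilin A/BRAF RBD mixture.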

NRAS WT = NRAS WT (Homo sapiens (Human), UniProt P01111+P62937); test: Ras-Raf (BRAF RBD) disruption / FRET / MOA assay, NRAS WT; assay type: biochemical; settings: read-out: IC50* NRAS WT FRET data
Sequence of NRAS WT (P01111 whole entry, canonical isoform): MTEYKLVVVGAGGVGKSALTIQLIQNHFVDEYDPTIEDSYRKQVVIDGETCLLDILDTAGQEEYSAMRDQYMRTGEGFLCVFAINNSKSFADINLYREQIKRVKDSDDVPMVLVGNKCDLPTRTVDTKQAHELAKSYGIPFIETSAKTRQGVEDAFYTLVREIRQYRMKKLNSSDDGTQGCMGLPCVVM
Sequence of NRAS WT (P62937 whole entry, canonical isoform): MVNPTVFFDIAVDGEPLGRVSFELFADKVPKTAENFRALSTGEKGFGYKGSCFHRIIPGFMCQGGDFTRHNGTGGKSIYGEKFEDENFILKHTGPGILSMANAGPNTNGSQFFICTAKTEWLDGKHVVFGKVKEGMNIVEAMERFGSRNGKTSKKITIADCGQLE
Protocol: (§2) The purpose of this biochemical assay is to measure the ability of test compounds to facilitate ternary complex formation between a nucleotide-loaded Ras isoform and cyclophilin A; the resulting ternary complex disrupts binding to a BRAF^RBD construct, inhibiting Ras signaling through a RAF effector.
(§3) […]. Compound is present in plate wells as a 10-point 3-fold dilution series starting at a final concentration of 30 μM. After incubation at 25° C. for 3 hours, a mixture of Anti-His Eu-W1024 and anti-GST allophycocyanin is then added to assay sample wells at final concentrations of 10 nM and 50 nM, respectively, and the reaction incubated for an additional 1.5 hours. […] Compounds that facilitate disruption of a Ras:RAF complex are identified as those eliciting a decrease in the TR-FRET ratio relative to DMSO control wells.
(§4) Note—The following protocol describes a procedure for monitoring disruption of K-Ras G12C (GMP-PNP) binding to BRAF^RBD by a compound of the invention. This protocol may also be executed substituting other Ras proteins or nucleotides.
(§5) The purpose of this biochemical assay was to measure the ability of test compounds to facilitate ternary complex formation between a nucleotide-loaded K-Ras isoform and Cyclophilin A; the resulting ternary complex disrupts binding to a BRAF^RBD construct, inhibiting K-Ras signaling through a RAF effector. Data is reported as IC50 values.
as §3, with “Compound was” for “Compound is”, “allophycocyanin was” for “allophycocyanin is”, “a K-Ras:RAF” for “a Ras:RAF”, “complex were” for “complex are”

KRAS WT = KRAS WT (Homo sapiens (Human), UniProt P01116+P62937); test: Ras-Raf (BRAF RBD) disruption / FRET / MOA assay, KRAS WT; assay type: biochemical; settings: read-out: IC50* KRAS WT FRET data
Sequence of KRAS WT (P01116-2 other isoform, or with tags, fused parts or gaps): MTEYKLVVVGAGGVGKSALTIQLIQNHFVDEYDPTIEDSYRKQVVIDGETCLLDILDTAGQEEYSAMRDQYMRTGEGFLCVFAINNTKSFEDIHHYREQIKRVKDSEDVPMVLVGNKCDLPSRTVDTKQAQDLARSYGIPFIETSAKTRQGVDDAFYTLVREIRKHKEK
Sequence of KRAS WT (P62937 whole entry): as the sequence (P62937 whole entry, canonical isoform) above
Procedure, shortened: as §1

NRAS Q61K = NRAS Q61K (Homo sapiens (Human), UniProt P01111+P62937, Q61K); test: Ras-Raf (BRAF RBD) disruption / FRET / MOA assay, NRAS Q61K; assay type: biochemical; settings: NRAS Q61K; Ras-Raf disruption/FRET/MOA assay; read-out: IC50* NRAS Q61K FRET data
Sequence of NRAS Q61K (P01111 whole entry Q61K): as the sequence (P01111 whole entry, canonical isoform) above, with Q61K counted along it
Sequence of NRAS Q61K (P62937 whole entry): as the sequence (P62937 whole entry, canonical isoform) above
Protocol: as §2, §3, §4, §5
as §3, with “Compound was” for “Compound is”, “allophycocyanin was” for “allophycocyanin is”, “a K-Ras:RAF” for “a Ras:RAF”, “complex were” for “complex are”

KRAS G12D = KRAS G12D (Homo sapiens (Human), UniProt P01116+P62937, G12D); test: Ras-Raf (BRAF RBD) disruption / FRET / MOA assay, KRAS G12D; assay type: biochemical; settings: Ras-Raf disruption/FRET/MOA assay; class symbols; read-out: KRAS G12D FRET data IC50
Sequence of KRAS G12D (P01116-2 other isoform, or with tags, fused parts or gaps G12D): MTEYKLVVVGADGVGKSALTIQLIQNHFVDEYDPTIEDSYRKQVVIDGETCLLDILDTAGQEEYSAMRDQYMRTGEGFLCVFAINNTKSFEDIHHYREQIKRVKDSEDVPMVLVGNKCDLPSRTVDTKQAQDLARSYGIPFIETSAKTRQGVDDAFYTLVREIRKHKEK
Sequence of KRAS G12D (P62937 whole entry): as the sequence (P62937 whole entry, canonical isoform) above
Procedure, shortened: as §1

NRAS Q61R = NRAS Q61R (Homo sapiens (Human), UniProt P01111+P62937, Q61R); test: Ras-Raf (BRAF RBD) disruption / FRET / MOA assay, NRAS Q61R; assay type: biochemical; settings: NRAS Q61R; Ras-Raf disruption/FRET/MOA assay; read-out: IC50* NRAS Q61R FRET data
Sequence of NRAS Q61R (P01111 whole entry Q61R): as the sequence (P01111 whole entry, canonical isoform) above, with Q61R counted along it
Sequence of NRAS Q61R (P62937 whole entry): as the sequence (P62937 whole entry, canonical isoform) above
Protocol: as §2, §3, §4, §5
as §3, with “Compound was” for “Compound is”, “allophycocyanin was” for “allophycocyanin is”, “a K-Ras:RAF” for “a Ras:RAF”, “complex were” for “complex are”

K-Ras G13C = K-Ras G13C (Homo sapiens (Human), UniProt P01116+P62937, G13C); test: Ras-Raf (BRAF RBD) disruption / FRET / MOA assay, KRAS G13C; assay type: biochemical; settings: KRAS G13C; Ras-Raf disruption/FRET/MOA assay; read-out: IC50* KRAS G13C FRET data
Sequence of K-Ras G13C (P01116-2 other isoform, or with tags, fused parts or gaps G13C): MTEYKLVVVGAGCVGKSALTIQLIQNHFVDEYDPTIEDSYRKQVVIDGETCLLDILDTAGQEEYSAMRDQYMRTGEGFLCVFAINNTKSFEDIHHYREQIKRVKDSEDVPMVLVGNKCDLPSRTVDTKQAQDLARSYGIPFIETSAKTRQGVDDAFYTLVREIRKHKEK
Sequence of K-Ras G13C (P62937 whole entry): as the sequence (P62937 whole entry, canonical isoform) above
Procedure, shortened: as §1

KRAS Q61H = KRAS Q61H (Homo sapiens (Human), UniProt P01116+P62937, Q61H); test: Ras-Raf (BRAF RBD) disruption / FRET / MOA assay, KRAS Q61H; assay type: biochemical; settings: Ras-Raf disruption/FRET/MOA assay; class symbols; read-out: KRAS Q61H FRET data IC50
Sequence of KRAS Q61H (P01116-2 other isoform, or with tags, fused parts or gaps Q61H): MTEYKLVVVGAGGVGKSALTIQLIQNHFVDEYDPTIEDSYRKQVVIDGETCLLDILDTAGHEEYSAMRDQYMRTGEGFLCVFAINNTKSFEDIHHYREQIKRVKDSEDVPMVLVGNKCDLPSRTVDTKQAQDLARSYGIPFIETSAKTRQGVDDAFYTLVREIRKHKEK
Sequence of KRAS Q61H (P62937 whole entry): as the sequence (P62937 whole entry, canonical isoform) above
Protocol: as §2, §3, §4, §5
as §3, with “Compound was” for “Compound is”, “allophycocyanin was” for “allophycocyanin is”, “a K-Ras:RAF” for “a Ras:RAF”, “complex were” for “complex are”

K-Ras G12C = K-Ras G12C (Homo sapiens (Human), UniProt P01116+P62937, G12C); test: Ras-Raf (BRAF RBD) disruption / FRET / MOA assay, KRAS G12C; assay type: biochemical; settings: KRAS G12C; Ras-Raf disruption/FRET/MOA assay; read-out: IC50* KRAS G12C FRET data
Sequence of K-Ras G12C (P01116-2 other isoform, or with tags, fused parts or gaps G12C): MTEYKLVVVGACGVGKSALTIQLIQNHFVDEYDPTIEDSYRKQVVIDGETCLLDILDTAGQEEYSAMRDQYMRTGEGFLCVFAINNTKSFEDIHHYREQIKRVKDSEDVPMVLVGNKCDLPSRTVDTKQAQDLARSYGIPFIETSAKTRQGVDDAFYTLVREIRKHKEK
Sequence of K-Ras G12C (P62937 whole entry): as the sequence (P62937 whole entry, canonical isoform) above
Procedure, shortened: as §1

KRAS G12S = KRAS G12S (Homo sapiens (Human), UniProt P01116+P62937, G12S); test: Ras-Raf (BRAF RBD) disruption / FRET / MOA assay, KRAS G12S; assay type: biochemical; settings: Ras-Raf disruption/FRET/MOA assay; class symbols; read-out: KRAS G12S FRET data IC50
Sequence of KRAS G12S (P01116-2 other isoform, or with tags, fused parts or gaps G12S): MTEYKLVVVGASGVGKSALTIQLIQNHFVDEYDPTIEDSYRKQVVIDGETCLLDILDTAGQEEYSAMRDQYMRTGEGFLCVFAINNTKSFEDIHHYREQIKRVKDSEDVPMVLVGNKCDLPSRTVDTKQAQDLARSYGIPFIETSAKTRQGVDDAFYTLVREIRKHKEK
Sequence of KRAS G12S (P62937 whole entry): as the sequence (P62937 whole entry, canonical isoform) above
Procedure, shortened: as §1

KRAS G12V = KRAS G12V (Homo sapiens (Human), UniProt P01116+P62937, G12V); test: Ras-Raf (BRAF RBD) disruption / FRET / MOA assay, KRAS G12V; assay type: biochemical; settings: read-out: IC50* KRAS G12V FRET data
Sequence of KRAS G12V (P01116-2 other isoform, or with tags, fused parts or gaps G12V): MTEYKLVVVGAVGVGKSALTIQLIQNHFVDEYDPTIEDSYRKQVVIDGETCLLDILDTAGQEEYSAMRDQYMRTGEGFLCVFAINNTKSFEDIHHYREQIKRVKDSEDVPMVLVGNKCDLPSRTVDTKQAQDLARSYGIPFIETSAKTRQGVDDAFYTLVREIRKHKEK
Sequence of KRAS G12V (P62937 whole entry): as the sequence (P62937 whole entry, canonical isoform) above
Procedure, shortened: as §1

KRAS G13D = KRAS G13D (Homo sapiens (Human), UniProt P01116+P62937, G13D); test: Ras-Raf (BRAF RBD) disruption / FRET / MOA assay, KRAS G13D; assay type: biochemical; settings: read-out: IC50* KRAS G13D FRET data
Sequence of KRAS G13D (P01116-2 other isoform, or with tags, fused parts or gaps G13D): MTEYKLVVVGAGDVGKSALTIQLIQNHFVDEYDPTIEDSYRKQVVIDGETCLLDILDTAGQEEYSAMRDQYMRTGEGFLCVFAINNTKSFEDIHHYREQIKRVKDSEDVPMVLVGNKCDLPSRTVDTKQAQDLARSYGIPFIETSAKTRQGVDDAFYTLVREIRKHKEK
Sequence of KRAS G13D (P62937 whole entry): as the sequence (P62937 whole entry, canonical isoform) above
Procedure, shortened: as §1

[1] = system: NCI-H358 cells (K-Ras G12C); test: Potency assay: pERK in NCI-H358 cells; assay type: cell-based, human; settings: H358 KRAS G12C, read-out: pERK EC50
Procedure, shortened: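 Inhibition of cellular pERK after a 4 h treatment, detected by AlphaLISA or In-Cell Western. IC50 from a four-parameter concentration-response fit.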

Sequence of NRAS G12C (P01111 whole entry G12C): as the sequence (P01111 whole entry, canonical isoform) above, with G12C counted along it
Sequence of NRAS G12C (P62937 whole entry): as the sequence (P62937 whole entry, canonical isoform) above

| SMILES | IC50 (NRAS G12C) [nM] | IC50 (NRAS WT) [nM] | IC50 (KRAS WT) [nM] | IC50 (NRAS Q61K) [nM] | IC50 (KRAS G12D) [nM] | IC50 (NRAS Q61R) [nM] | IC50 (K-Ras G13C) [nM] | IC50 (KRAS Q61H) [nM] | IC50 (K-Ras G12C) [nM] | IC50 (KRAS G12S) [nM] | IC50 (KRAS G12V) [nM] | IC50 (KRAS G13D) [nM] | EC50 ([1]; Homo sapiens, NCI-H358) [nM] | EC50 [1] [nM] |
| --- | --- | --- | --- | --- | --- | --- | --- | --- | --- | --- | --- | --- | --- | --- |
| C=CC(=O)N1CC[C@H](C(=O)N(C)[C@H](C(=O)N[C@H]2Cc3cc(sn3)-c3ccc4c(c3)c(c(-c3cccnc3[C@H](C)OC)n4CC)CC(C)(C)COC(=O)[C@@H]3CCCN(N3)C2=O)C(C)C)C1 (atropisomer, axis not shown) [Example A340] | 100 to 1000 | 100 to 1000 | 1000 to 10000 | 100 to 1000 | > 10000 | 1000 to 10000 | 100 to 1000 | 100 to 1000 | 100 to 1000 | 1000 to 10000 | 1000 to 10000 | 1000 to 10000 | – | – |
| CO[C@@H](C)c1ncccc1-c1c2c3cc(ccc3n1CC(F)(F)F)-c1cc(cc(C(F)F)c1)C[C@H](NC(=O)[C@H](C(C)C)N(C)C(=O)[C@H]1CCN(C(=O)C#CC(C)(C)N3CCC3)C1)C(=O)N1CCC[C@H](N1)C(=O)OCC(C)(C)C2 (atropisomer, axis not shown) [Example A370] | 10 to 100 | 1000 to 10000 | 1000 to 10000 | 1000 to 10000 | 1000 to 10000 | 1000 to 10000 | 100 to 1000 | 1000 to 10000 | 10 to 100 | 1000 to 10000 | 1000 to 10000 | 1000 to 10000 | < 5000 | – |
| C=CC(=O)N1CC[C@H](C(=O)N(C)[C@H](C(=O)N[C@H]2C[C@H]3CN(CCO3)c3ccc4c(c3)c(c(-c3cccnc3[C@H](C)OC)n4CC)CC(C)(C)COC(=O)[C@@H]3CCCN(N3)C2=O)C(C)C)C1 (atropisomer, axis not shown) [Example A378] | 100 to 1000 | 1000 to 10000 | 1000 to 10000 | > 10000 | > 10000 | > 10000 | 1000 to 10000 | > 10000 | 100 to 1000 | 1000 to 10000 | 1000 to 10000 | > 10000 | < 5000 | – |
| CCn1c(-c2cccnc2[C@H](C)OC)c2c3cc(ccc31)-c1cccc(c1)C[C@H](NC(=O)[C@H](C1CCCC1)N(C)C(=O)[C@@H]1CN(C(=O)C#CC(C)(C)N(C)C)C[C@@H]1C)C(=O)N1CCC[C@H](N1)C(=O)OCC(C)(C)C2 (atropisomer, axis not shown) [Example A391] | < 10 | 1000 to 10000 | 1000 to 10000 | 1000 to 10000 | > 10000 | 1000 to 10000 | 1000 to 10000 | 1000 to 10000 | < 10 | 1000 to 10000 | 1000 to 10000 | 1000 to 10000 | < 5000 | – |
| C=CC(=O)N1CC[C@H](C(=O)N(C)[C@H](C(=O)N[C@H]2CC3=CCCN(C3)c3ccc4c(c3)c(c(-c3cccnc3[C@H](C)OC)n4CC)CC(C)(C)COC(=O)[C@@H]3CCCN(N3)C2=O)C(C)C)C1 (atropisomer, axis not shown) [Example A486] | 100 to 1000 | > 10000 | > 10000 | > 10000 | > 10000 | > 10000 | 1000 to 10000 | > 10000 | 100 to 1000 | > 10000 | > 10000 | > 10000 | < 5000 | – |
| C=CC(=O)N1CC[C@H](C(=O)N(C)[C@H](C(=O)N[C@H]2Cc3cc(O)cc(c3)-c3ccc4c(c3)c(c(-c3cc(CN(C)C)cnc3[C@H](C)OC)n4CC)CC(C)(C)COC(=O)[C@@H]3CCCN(N3)C2=O)C(C)C)C1 (atropisomer, axis not shown) [Example A537] | < 10 | 10 to 100 | 10 to 100 | 100 to 1000 | 100 to 1000 | 100 to 1000 | 10 to 100 | 10 to 100 | – | 10 to 100 | 10 to 100 | 10 to 100 | – | < 5000 |
| CO[C@@H](C)c1ncc(N2CCN(C)CC2)cc1-c1c2c3cc(ccc3n1CC(F)(F)F)-c1cccc(c1)C[C@H](NC(=O)[C@H](C(C)C)N(C)C(=O)C1(F)CCN(C(=O)C#CC(C)(C)N(C)C)CC1)C(=O)N1CCC[C@H](N1)C(=O)OCC(C)(C)C2 (atropisomer, axis not shown) [Example A542, 1-(4-(dimethylamino)-4-methylpent-2-ynoyl)-4-fluoro-N-((2S)-1-(((6^3S,4S)-1^2-(2-((S)-1-methoxyethyl)-5-(4-methylpiperazin-1-yl)pyridin-3-yl)-10,10-dimethyl-5,7-dioxo-1^1-(2,2,2-trifluoroethyl)-6^1,6^2,6^3,6^4,6^5,6^6-hexahydro-1^1H-8-oxa-1(5,3)-indola-6(1,3)-pyridazina-2(1,3)-benzenacycloundecaphane-4-yl)amino)-3-methyl-1-oxobutan-2-yl)-N-methylpiperidine-4-carboxamide] | < 10 | 10 to 100 | 10 to 100 | 10 to 100 | 100 to 1000 | 10 to 100 | < 10 | 10 to 100 | < 10 | 10 to 100 | 10 to 100 | 10 to 100 | < 5000 | – |
| CO[C@@H](C)c1ncccc1-c1c2c3cc(ccc3n1CC(F)(F)F)-c1csc(n1)C[C@H](NC(=O)[C@H](C(C)C)N(C)C(=O)N1C[C@@H]3OCCN(C(=O)/C=C/CF)[C@@H]3C1)C(=O)N1CCC[C@H](N1)C(=O)OCC(C)(C)C2 (atropisomer, axis not shown) [Example A571] | 100 to 1000 | 100 to 1000 | 100 to 1000 | 100 to 1000 | 1000 to 10000 | 100 to 1000 | 10 to 100 | 100 to 1000 | 100 to 1000 | 100 to 1000 | 100 to 1000 | 1000 to 10000 | < 5000 | – |
| C=CC(=O)N1CC[C@H](C(=O)N(C)C(C(=O)N[C@H]2C[C@H]3CN(CCO3)c3ccc4c(c3)c(c(-c3cccnc3[C@H](C)OC)n4CC)CC(C)(C)COC(=O)[C@@H]3CCCN(N3)C2=O)C(C)C)C1 (mixture of isomers) [Example A507] | 100 to 1000 | 1000 to 10000 | > 10000 | > 10000 | > 10000 | > 10000 | 1000 to 10000 | > 10000 | 100 to 1000 | 1000 to 10000 | 1000 to 10000 | > 10000 | – | – |
